# According to the kinase profiling compilation of Christmann-Franck et al. (2016):
# Target: PRKCI (human) (UniProt P41743)
# Experiment: radiometric filter-binding kinase assay, Kinase HotSpot
# Details: compound 0.5 µM; ATP 10 µM
# Sequence of PRKCI (human) (P41743 whole entry, looked up): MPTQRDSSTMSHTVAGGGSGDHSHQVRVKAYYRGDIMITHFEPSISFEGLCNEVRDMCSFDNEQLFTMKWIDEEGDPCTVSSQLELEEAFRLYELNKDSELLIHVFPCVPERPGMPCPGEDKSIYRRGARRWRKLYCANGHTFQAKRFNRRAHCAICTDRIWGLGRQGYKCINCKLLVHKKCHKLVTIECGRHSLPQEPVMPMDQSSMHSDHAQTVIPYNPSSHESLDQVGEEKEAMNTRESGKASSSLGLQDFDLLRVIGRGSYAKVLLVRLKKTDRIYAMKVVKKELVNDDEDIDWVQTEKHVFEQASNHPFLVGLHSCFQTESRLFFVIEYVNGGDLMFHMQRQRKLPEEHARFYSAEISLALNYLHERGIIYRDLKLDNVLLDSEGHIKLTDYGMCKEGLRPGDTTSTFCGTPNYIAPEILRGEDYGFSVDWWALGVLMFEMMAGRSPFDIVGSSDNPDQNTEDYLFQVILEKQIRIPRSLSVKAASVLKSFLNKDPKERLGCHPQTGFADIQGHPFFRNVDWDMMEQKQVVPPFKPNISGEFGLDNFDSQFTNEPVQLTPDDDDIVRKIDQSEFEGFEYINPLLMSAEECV
row,Structure (SMILES),residual activity [%]
1,O=c1[nH]c2ccccc2n1C1CCN(Cc2ccc(-c3nc4cc5[nH]cnc5cc4nc3-c3ccccc3)cc2)CC1,97
2,COc1cc2c(cc1OC)-c1[nH]nc(Nc3cccc(F)c3)c1C2,95.5
3,O=c1cc(N2CCOCC2)oc2c(-c3ccccc3)cccc12,99.5
4,COc1cccc(-c2cc(=O)c3ccccc3o2)c1N,97.3

# Target: MAPKAPK3 (human) (UniProt Q16644)
# Experiment: as above
# Details: compound 0.5 µM; ATP 10 µM
row,Structure (SMILES),residual activity [%]
1,O=c1[nH]c2ccccc2n1C1CCN(Cc2ccc(-c3nc4cc5[nH]cnc5cc4nc3-c3ccccc3)cc2)CC1,104
2,COc1cc2c(cc1OC)-c1[nH]nc(Nc3cccc(F)c3)c1C2,90.8
3,O=c1cc(N2CCOCC2)oc2c(-c3ccccc3)cccc12,101
4,COc1cccc(-c2cc(=O)c3ccccc3o2)c1N,88.1

# Target: PKN2 (human) (UniProt Q16513)
# Sequence (Q16513 whole entry, looked up): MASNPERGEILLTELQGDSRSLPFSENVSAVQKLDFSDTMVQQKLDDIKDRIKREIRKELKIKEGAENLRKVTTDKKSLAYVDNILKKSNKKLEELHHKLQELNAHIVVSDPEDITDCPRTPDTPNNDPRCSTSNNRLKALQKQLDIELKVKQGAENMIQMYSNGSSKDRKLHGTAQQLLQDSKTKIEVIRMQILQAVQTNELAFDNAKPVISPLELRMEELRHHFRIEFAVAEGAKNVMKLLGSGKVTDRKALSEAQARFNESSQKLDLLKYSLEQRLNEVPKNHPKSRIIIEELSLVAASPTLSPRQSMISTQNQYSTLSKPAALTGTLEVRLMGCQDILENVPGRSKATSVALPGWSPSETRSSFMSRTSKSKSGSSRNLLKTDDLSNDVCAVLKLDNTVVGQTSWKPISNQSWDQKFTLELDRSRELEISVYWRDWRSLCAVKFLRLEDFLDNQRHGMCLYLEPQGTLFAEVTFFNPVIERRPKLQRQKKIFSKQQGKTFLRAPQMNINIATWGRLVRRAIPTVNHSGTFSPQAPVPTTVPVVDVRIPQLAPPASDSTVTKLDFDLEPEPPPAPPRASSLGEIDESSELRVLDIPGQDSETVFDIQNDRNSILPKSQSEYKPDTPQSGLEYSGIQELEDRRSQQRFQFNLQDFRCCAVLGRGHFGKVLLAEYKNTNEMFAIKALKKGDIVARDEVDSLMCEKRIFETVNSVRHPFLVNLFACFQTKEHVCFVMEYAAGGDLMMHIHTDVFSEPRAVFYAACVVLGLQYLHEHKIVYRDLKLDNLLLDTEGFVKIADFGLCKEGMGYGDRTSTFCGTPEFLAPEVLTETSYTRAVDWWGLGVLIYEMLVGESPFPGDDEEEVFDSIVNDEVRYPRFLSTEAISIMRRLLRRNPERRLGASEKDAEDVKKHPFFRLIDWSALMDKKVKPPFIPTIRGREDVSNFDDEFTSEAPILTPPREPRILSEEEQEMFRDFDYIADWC
# Experiment: as above
# Details: compound 0.5 µM; ATP 10 µM
row,Structure (SMILES),residual activity [%]
1,O=c1[nH]c2ccccc2n1C1CCN(Cc2ccc(-c3nc4cc5[nH]cnc5cc4nc3-c3ccccc3)cc2)CC1,73.2
2,COc1cc2c(cc1OC)-c1[nH]nc(Nc3cccc(F)c3)c1C2,92
3,O=c1cc(N2CCOCC2)oc2c(-c3ccccc3)cccc12,98.6
4,COc1cccc(-c2cc(=O)c3ccccc3o2)c1N,81

# Target: GRK5 (human) (UniProt P34947)
# Experiment: as above
# Details: compound 0.5 µM; ATP 10 µM
row,Structure (SMILES),residual activity [%]
1,O=c1[nH]c2ccccc2n1C1CCN(Cc2ccc(-c3nc4cc5[nH]cnc5cc4nc3-c3ccccc3)cc2)CC1,109
2,COc1cc2c(cc1OC)-c1[nH]nc(Nc3cccc(F)c3)c1C2,95.8
3,O=c1cc(N2CCOCC2)oc2c(-c3ccccc3)cccc12,91.6
4,COc1cccc(-c2cc(=O)c3ccccc3o2)c1N,97.3

# Target: MELK (human) (UniProt Q14680)
# Experiment: as above
# Details: compound 0.5 µM; ATP 10 µM
row,Structure (SMILES),residual activity [%]
1,O=c1[nH]c2ccccc2n1C1CCN(Cc2ccc(-c3nc4cc5[nH]cnc5cc4nc3-c3ccccc3)cc2)CC1,110
2,COc1cc2c(cc1OC)-c1[nH]nc(Nc3cccc(F)c3)c1C2,72.1
3,O=c1cc(N2CCOCC2)oc2c(-c3ccccc3)cccc12,91.3
4,COc1cccc(-c2cc(=O)c3ccccc3o2)c1N,94

# Target: EPHB2 (human) (UniProt P29323)
# Experiment: as above
# Details: compound 0.5 µM; ATP 10 µM
row,Structure (SMILES),residual activity [%]
1,O=c1[nH]c2ccccc2n1C1CCN(Cc2ccc(-c3nc4cc5[nH]cnc5cc4nc3-c3ccccc3)cc2)CC1,108
2,COc1cc2c(cc1OC)-c1[nH]nc(Nc3cccc(F)c3)c1C2,94.8
3,O=c1cc(N2CCOCC2)oc2c(-c3ccccc3)cccc12,99.8
4,COc1cccc(-c2cc(=O)c3ccccc3o2)c1N,88

# Target: TYK2 JH1 catalytic (human) (UniProt P29597)
# Experiment: as above
# Details: compound 0.5 µM; ATP 10 µM
row,Structure (SMILES),residual activity [%]
1,O=c1[nH]c2ccccc2n1C1CCN(Cc2ccc(-c3nc4cc5[nH]cnc5cc4nc3-c3ccccc3)cc2)CC1,101
2,COc1cc2c(cc1OC)-c1[nH]nc(Nc3cccc(F)c3)c1C2,81.3
3,O=c1cc(N2CCOCC2)oc2c(-c3ccccc3)cccc12,103
4,COc1cccc(-c2cc(=O)c3ccccc3o2)c1N,92.7

# Target: MATK (human) (UniProt P42679)
# Sequence (P42679 whole entry, looked up): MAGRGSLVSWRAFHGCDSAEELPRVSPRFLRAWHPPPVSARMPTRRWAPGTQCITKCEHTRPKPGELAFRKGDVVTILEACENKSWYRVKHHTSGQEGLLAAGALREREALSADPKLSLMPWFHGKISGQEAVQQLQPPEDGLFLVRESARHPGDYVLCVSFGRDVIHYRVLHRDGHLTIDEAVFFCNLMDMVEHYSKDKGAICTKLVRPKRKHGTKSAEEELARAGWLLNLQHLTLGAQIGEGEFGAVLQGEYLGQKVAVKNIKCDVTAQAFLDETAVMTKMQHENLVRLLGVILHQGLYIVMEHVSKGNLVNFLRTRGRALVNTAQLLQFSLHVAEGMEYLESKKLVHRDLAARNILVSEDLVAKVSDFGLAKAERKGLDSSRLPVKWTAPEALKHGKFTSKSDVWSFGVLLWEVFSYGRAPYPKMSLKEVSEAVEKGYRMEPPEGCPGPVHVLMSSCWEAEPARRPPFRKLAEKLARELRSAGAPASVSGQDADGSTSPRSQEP
# Experiment: as above
# Details: compound 0.5 µM; ATP 10 µM
row,Structure (SMILES),residual activity [%]
1,O=c1[nH]c2ccccc2n1C1CCN(Cc2ccc(-c3nc4cc5[nH]cnc5cc4nc3-c3ccccc3)cc2)CC1,102
2,COc1cc2c(cc1OC)-c1[nH]nc(Nc3cccc(F)c3)c1C2,92.1
3,O=c1cc(N2CCOCC2)oc2c(-c3ccccc3)cccc12,84.6
4,COc1cccc(-c2cc(=O)c3ccccc3o2)c1N,88.6

# Target: PRKCE (human) (UniProt Q02156)
# Experiment: as above
# Details: compound 0.5 µM; ATP 10 µM
row,Structure (SMILES),residual activity [%]
1,O=c1[nH]c2ccccc2n1C1CCN(Cc2ccc(-c3nc4cc5[nH]cnc5cc4nc3-c3ccccc3)cc2)CC1,109
2,COc1cc2c(cc1OC)-c1[nH]nc(Nc3cccc(F)c3)c1C2,87.9
3,O=c1cc(N2CCOCC2)oc2c(-c3ccccc3)cccc12,102
4,COc1cccc(-c2cc(=O)c3ccccc3o2)c1N,82.4

# Target: MAPKAPK2 (human) (UniProt P49137)
# Sequence (P49137 whole entry, looked up): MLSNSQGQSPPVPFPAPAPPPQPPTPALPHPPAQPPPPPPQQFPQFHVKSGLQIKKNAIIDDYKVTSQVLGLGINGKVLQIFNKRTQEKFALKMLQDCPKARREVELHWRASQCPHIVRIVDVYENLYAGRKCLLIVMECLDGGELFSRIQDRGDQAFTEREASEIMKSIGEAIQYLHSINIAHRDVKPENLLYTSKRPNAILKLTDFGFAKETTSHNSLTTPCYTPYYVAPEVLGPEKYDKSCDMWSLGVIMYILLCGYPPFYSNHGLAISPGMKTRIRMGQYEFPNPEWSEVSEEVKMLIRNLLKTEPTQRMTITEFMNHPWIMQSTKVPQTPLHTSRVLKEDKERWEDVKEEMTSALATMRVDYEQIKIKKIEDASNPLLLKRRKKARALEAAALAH
# Experiment: as above
# Details: compound 0.5 µM; ATP 10 µM
row,Structure (SMILES),residual activity [%]
1,O=c1[nH]c2ccccc2n1C1CCN(Cc2ccc(-c3nc4cc5[nH]cnc5cc4nc3-c3ccccc3)cc2)CC1,98.7
2,COc1cc2c(cc1OC)-c1[nH]nc(Nc3cccc(F)c3)c1C2,97.2
3,O=c1cc(N2CCOCC2)oc2c(-c3ccccc3)cccc12,103
4,COc1cccc(-c2cc(=O)c3ccccc3o2)c1N,102

# Target: SRPK2 (human) (UniProt P78362)
# Experiment: as above
# Details: compound 0.5 µM; ATP 10 µM
row,Structure (SMILES),residual activity [%]
1,O=c1[nH]c2ccccc2n1C1CCN(Cc2ccc(-c3nc4cc5[nH]cnc5cc4nc3-c3ccccc3)cc2)CC1,116
2,COc1cc2c(cc1OC)-c1[nH]nc(Nc3cccc(F)c3)c1C2,87.8
3,O=c1cc(N2CCOCC2)oc2c(-c3ccccc3)cccc12,98.2
4,COc1cccc(-c2cc(=O)c3ccccc3o2)c1N,91.7

# Target: CSNK1D (human) (UniProt P48730)
# Sequence (P48730 whole entry, looked up): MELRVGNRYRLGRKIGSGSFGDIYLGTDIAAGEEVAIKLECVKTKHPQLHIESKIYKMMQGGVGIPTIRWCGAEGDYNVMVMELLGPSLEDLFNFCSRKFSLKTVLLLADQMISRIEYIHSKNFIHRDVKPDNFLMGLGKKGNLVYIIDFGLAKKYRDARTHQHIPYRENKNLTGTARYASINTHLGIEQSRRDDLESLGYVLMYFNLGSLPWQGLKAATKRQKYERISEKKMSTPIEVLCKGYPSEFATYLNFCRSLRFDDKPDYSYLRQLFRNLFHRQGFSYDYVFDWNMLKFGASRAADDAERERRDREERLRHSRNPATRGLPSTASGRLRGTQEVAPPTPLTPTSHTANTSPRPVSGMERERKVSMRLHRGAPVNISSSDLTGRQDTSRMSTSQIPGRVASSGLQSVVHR
# Experiment: as above
# Details: compound 0.5 µM
row,Structure (SMILES),residual activity [%]
1,O=c1[nH]c2ccccc2n1C1CCN(Cc2ccc(-c3nc4cc5[nH]cnc5cc4nc3-c3ccccc3)cc2)CC1,100

# Same assay, conditions: compound 0.5 µM; ATP 10 µM
row,Structure (SMILES),residual activity [%]
1,COc1cc2c(cc1OC)-c1[nH]nc(Nc3cccc(F)c3)c1C2,99.9
2,O=c1cc(N2CCOCC2)oc2c(-c3ccccc3)cccc12,100
3,COc1cccc(-c2cc(=O)c3ccccc3o2)c1N,99.1

# Target: MAP4K4 (human) (UniProt O95819)
# Experiment: as above
# Details: compound 0.5 µM; ATP 10 µM
row,Structure (SMILES),residual activity [%]
1,O=c1[nH]c2ccccc2n1C1CCN(Cc2ccc(-c3nc4cc5[nH]cnc5cc4nc3-c3ccccc3)cc2)CC1,99.5
2,COc1cc2c(cc1OC)-c1[nH]nc(Nc3cccc(F)c3)c1C2,55.5
3,O=c1cc(N2CCOCC2)oc2c(-c3ccccc3)cccc12,93.5
4,COc1cccc(-c2cc(=O)c3ccccc3o2)c1N,97.2

# Target: SGK2 (human) (UniProt Q9HBY8)
# Sequence (Q9HBY8 whole entry, looked up): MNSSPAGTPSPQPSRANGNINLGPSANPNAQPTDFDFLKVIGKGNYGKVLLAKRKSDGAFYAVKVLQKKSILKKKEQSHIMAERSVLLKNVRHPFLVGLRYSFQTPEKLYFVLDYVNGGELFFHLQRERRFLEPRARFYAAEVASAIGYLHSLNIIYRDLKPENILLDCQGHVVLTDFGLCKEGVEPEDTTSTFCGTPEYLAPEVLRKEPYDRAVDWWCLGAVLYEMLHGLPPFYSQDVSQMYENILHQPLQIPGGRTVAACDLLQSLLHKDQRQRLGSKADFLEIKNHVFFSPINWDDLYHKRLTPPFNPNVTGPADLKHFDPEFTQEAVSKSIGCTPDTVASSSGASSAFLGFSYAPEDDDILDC
# Experiment: as above
# Details: compound 0.5 µM; ATP 10 µM
row,Structure (SMILES),residual activity [%]
1,O=c1[nH]c2ccccc2n1C1CCN(Cc2ccc(-c3nc4cc5[nH]cnc5cc4nc3-c3ccccc3)cc2)CC1,112
2,COc1cc2c(cc1OC)-c1[nH]nc(Nc3cccc(F)c3)c1C2,98.6
3,O=c1cc(N2CCOCC2)oc2c(-c3ccccc3)cccc12,97
4,COc1cccc(-c2cc(=O)c3ccccc3o2)c1N,95.9

# Target: ERBB4 (human) (UniProt Q15303)
# Experiment: as above
# Details: compound 0.5 µM; ATP 10 µM
row,Structure (SMILES),residual activity [%]
1,O=c1[nH]c2ccccc2n1C1CCN(Cc2ccc(-c3nc4cc5[nH]cnc5cc4nc3-c3ccccc3)cc2)CC1,105
2,COc1cc2c(cc1OC)-c1[nH]nc(Nc3cccc(F)c3)c1C2,96.5
3,O=c1cc(N2CCOCC2)oc2c(-c3ccccc3)cccc12,102
4,COc1cccc(-c2cc(=O)c3ccccc3o2)c1N,94.7

# Target: CLK2 (human) (UniProt P49760)
# Sequence (P49760 whole entry, looked up): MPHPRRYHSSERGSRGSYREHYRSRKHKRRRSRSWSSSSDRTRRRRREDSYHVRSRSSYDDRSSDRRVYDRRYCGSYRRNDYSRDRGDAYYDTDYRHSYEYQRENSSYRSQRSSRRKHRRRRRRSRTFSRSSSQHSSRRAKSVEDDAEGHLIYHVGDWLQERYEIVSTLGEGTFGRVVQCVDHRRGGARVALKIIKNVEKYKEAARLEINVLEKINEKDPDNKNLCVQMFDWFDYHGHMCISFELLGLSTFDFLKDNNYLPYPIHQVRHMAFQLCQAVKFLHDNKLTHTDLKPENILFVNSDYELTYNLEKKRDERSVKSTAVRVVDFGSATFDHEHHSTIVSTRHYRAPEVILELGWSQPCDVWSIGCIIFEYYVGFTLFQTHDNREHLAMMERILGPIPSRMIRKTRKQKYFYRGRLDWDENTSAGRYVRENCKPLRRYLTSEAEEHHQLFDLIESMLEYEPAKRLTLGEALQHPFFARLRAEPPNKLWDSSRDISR
# Experiment: as above
# Details: compound 0.5 µM; ATP 10 µM
row,Structure (SMILES),residual activity [%]
1,O=c1[nH]c2ccccc2n1C1CCN(Cc2ccc(-c3nc4cc5[nH]cnc5cc4nc3-c3ccccc3)cc2)CC1,114
2,COc1cc2c(cc1OC)-c1[nH]nc(Nc3cccc(F)c3)c1C2,84.3
3,O=c1cc(N2CCOCC2)oc2c(-c3ccccc3)cccc12,100
4,COc1cccc(-c2cc(=O)c3ccccc3o2)c1N,103

# Target: RIPK2 (human) (UniProt O43353)
# Experiment: as above
# Details: compound 0.5 µM; ATP 10 µM
row,Structure (SMILES),residual activity [%]
1,O=c1[nH]c2ccccc2n1C1CCN(Cc2ccc(-c3nc4cc5[nH]cnc5cc4nc3-c3ccccc3)cc2)CC1,89.2
2,COc1cc2c(cc1OC)-c1[nH]nc(Nc3cccc(F)c3)c1C2,76.3
3,O=c1cc(N2CCOCC2)oc2c(-c3ccccc3)cccc12,89.9
4,COc1cccc(-c2cc(=O)c3ccccc3o2)c1N,87.5

# Target: GSK3A (human) (UniProt P49840)
# Experiment: as above
# Details: compound 0.5 µM; ATP 10 µM
row,Structure (SMILES),residual activity [%]
1,O=c1[nH]c2ccccc2n1C1CCN(Cc2ccc(-c3nc4cc5[nH]cnc5cc4nc3-c3ccccc3)cc2)CC1,100
2,COc1cc2c(cc1OC)-c1[nH]nc(Nc3cccc(F)c3)c1C2,101
3,O=c1cc(N2CCOCC2)oc2c(-c3ccccc3)cccc12,93.5
4,COc1cccc(-c2cc(=O)c3ccccc3o2)c1N,97

# Target: PRKCD (human) (UniProt Q05655)
# Experiment: as above
# Details: compound 0.5 µM; ATP 10 µM
row,Structure (SMILES),residual activity [%]
1,O=c1[nH]c2ccccc2n1C1CCN(Cc2ccc(-c3nc4cc5[nH]cnc5cc4nc3-c3ccccc3)cc2)CC1,98.8
2,COc1cc2c(cc1OC)-c1[nH]nc(Nc3cccc(F)c3)c1C2,111
3,O=c1cc(N2CCOCC2)oc2c(-c3ccccc3)cccc12,96
4,COc1cccc(-c2cc(=O)c3ccccc3o2)c1N,106

# Target: HIPK1 (human) (UniProt Q86Z02)
# Sequence (Q86Z02 whole entry, looked up): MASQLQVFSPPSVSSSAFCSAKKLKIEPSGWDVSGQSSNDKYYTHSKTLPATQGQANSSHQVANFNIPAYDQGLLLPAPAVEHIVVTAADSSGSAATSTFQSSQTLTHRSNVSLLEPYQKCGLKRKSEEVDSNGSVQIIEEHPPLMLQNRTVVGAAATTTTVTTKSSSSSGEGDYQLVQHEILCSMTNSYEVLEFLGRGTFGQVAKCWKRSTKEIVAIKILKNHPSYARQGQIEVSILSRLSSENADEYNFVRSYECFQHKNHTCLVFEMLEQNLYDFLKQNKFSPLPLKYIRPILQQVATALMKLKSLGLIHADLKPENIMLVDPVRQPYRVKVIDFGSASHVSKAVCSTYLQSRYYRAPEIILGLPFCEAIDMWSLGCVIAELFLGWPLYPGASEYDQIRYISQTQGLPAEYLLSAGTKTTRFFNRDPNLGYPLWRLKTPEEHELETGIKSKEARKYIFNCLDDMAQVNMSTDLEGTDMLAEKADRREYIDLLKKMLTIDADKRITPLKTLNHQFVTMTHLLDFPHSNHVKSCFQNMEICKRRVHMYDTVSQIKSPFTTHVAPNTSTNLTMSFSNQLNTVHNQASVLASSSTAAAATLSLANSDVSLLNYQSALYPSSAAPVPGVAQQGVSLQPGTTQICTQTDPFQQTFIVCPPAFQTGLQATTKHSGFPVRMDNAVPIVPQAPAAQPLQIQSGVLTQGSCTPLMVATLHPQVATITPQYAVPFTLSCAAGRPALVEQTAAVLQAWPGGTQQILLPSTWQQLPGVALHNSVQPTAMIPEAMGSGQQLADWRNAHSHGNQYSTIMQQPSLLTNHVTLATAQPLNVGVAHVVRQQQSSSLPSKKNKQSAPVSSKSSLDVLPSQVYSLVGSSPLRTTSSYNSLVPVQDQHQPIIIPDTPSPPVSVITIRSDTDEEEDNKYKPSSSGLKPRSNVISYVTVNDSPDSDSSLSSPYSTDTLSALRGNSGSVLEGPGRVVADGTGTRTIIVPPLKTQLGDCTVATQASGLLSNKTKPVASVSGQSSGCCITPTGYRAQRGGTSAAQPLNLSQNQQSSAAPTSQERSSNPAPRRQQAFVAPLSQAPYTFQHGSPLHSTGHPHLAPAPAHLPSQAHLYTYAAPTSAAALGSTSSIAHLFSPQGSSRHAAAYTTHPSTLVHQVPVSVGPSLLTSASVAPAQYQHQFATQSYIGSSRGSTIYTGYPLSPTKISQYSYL
# Experiment: as above
# Details: compound 0.5 µM; ATP 10 µM
row,Structure (SMILES),residual activity [%]
1,O=c1[nH]c2ccccc2n1C1CCN(Cc2ccc(-c3nc4cc5[nH]cnc5cc4nc3-c3ccccc3)cc2)CC1,106
2,COc1cc2c(cc1OC)-c1[nH]nc(Nc3cccc(F)c3)c1C2,96.4
3,O=c1cc(N2CCOCC2)oc2c(-c3ccccc3)cccc12,111
4,COc1cccc(-c2cc(=O)c3ccccc3o2)c1N,104

# Target: FYN (human) (UniProt P06241)
# Experiment: as above
# Details: compound 0.5 µM; ATP 10 µM
row,Structure (SMILES),residual activity [%]
1,O=c1[nH]c2ccccc2n1C1CCN(Cc2ccc(-c3nc4cc5[nH]cnc5cc4nc3-c3ccccc3)cc2)CC1,101
2,COc1cc2c(cc1OC)-c1[nH]nc(Nc3cccc(F)c3)c1C2,73.4
3,O=c1cc(N2CCOCC2)oc2c(-c3ccccc3)cccc12,100
4,COc1cccc(-c2cc(=O)c3ccccc3o2)c1N,97.3
